According to patent US11846639B2, “Ligand discovery for T cell receptors” (priority 2014, dated 2023):
Residues, ends and D or L forms follow the SMILES beside them.

Key:
5cc7 TCR = test: Surface plasmon resonance affinity of peptide-I-Ek for 5cc7 TCR; type: binding, murine; details: SPR, peptide exchanged into soluble I-Ek
Source text: Refolded Murine TCRs for crystallography and affinity measurements. Refolded 2B4, 226, and 5cc7 were created essentially as described. For […] and 5c2 crystal structures, the 5c1 and 5c2 peptides were fused to the N-terminus of 5cc7β via a 10-amino acid GlySer linker. TCRs were purified via size exclusion chromatography and assayed via SDS-PAGE to ensure 1:1 α:β stoichiometry. If there were an excess of TCRβ, ββ homodimer was purified away from αβ heterodimer via ion exchange chromatography on a MonoQ column (GE Healthcare) using a 20 mM Tris pH 8/20 mM Tris pH8+ 500 mM NaCl buffer system. Proteins were then reexchanged into HBS for further use.
Surface plasmon resonance. Affinity measurements for peptides bound to I-Ek for 226, 2B4, and 5cc7 TCRs were determined via surface plasmon resonance on a Biacore T100 (GE Healthcare). 10 μM of peptide of interest was added to biotinylated Clip-I-Ek. 1 U thrombin/100 μg MHC was added and incubated at 37°. After 1 hour, pH was lowered by adding sodium cacodylate pH 6.2 to 30 mM and sample was incubated at 37° overnight. Samples were then neutralized with 40 mM HEPES pH 7.2 and stored at 4° until use. pMHC exchanged with the peptide of interest were bound to a Biacore SA chip (GE Healthcare) at a low surface density (100-200 RU) to ensure no recapture of analyte. I-Ek exchanged with a null peptide (MCC K99E) was used as the reference surface. […]

5cc7 T cell blasts = type: cell-based, mice; details: 5cc7 T cells; peptide presented by I-Ek; read-out: signaling potency (EC50)
Method: Selection of library derived I-Ek peptides for further characterization. Peptides were chosen from the deep sequencing data across a wide range of sequence prevalence for further study via SPR, activity, and structural characterization. Peptides were chosen that were recognized by 1, 2, or all 3 I-E^k reactive TCRs. All peptides were tested for activity with both 2B4 and 5cc7 T cell clones regardless of for which TCR they were initially selected. A subset of peptides was chosen to further characterize via SPR. The 2A peptide that was structurally characterized in FIG. 5A was discovered by manual curation of an I-Ek peptide library. 2A is highly homologous to peptides represented in the deep sequencing data and co-clusters with MCC.
Activity assay for I-Ek-selected peptides. Lymphocytes were isolated from 5cc7 or 2B4 TCR transgenic Rag−/− mice. […] CD69 upregulation was measured using an Accuri C6 flow cytometer with an autosampler (BD) by measuring CD69 MFI in the CD4+ gate. Data was then normalized and EC50s measured via Prism. IL-2 release was measured in technical triplicates via anti-IL-2 Elisa (Ready-setgo mouse IL-2 ELISA kit, eBioscience 88-7024), as recommended by the manufacturer. […] Absorbance was measured via SpectraMax Paradigm (Molecular Devices), with EC50 determined via Graphpad Prism.

Row | SMILES | Kd (5cc7 TCR) | EC50 (5cc7 T cell blasts)
1 | CC[C@H](C)[C@H](NC(=O)[C@H](CC(C)C)NC(=O)[C@H](CC(=O)O)NC(=O)[C@H](C)N)C(=O)N[C@@H](C)C(=O)N[C@@H](Cc1ccc(O)cc1)C(=O)N[C@@H](CC(C)C)C(=O)N[C@@H](CCCCN)C(=O)N[C@@H](CCC(N)=O)C(=O)N[C@@H](C)C(=O)N[C@H](C(=O)N[C@@H](CCCCN)C(=O)O)[C@@H](C)O [MCC, reference compound] (H-ADLIAYLKQATK-OH; N-terminus and C-terminus assumed) | 41 µM | 
2 | CC(C)C[C@H](NC(=O)[C@H](Cc1ccccc1)NC(=O)[C@H](Cc1ccccc1)NC(=O)[C@H](C)NC(=O)[C@@H](NC(=O)CNC(=O)[C@H](CC(N)=O)NC(=O)[C@H](C)N)C(C)C)C(=O)N[C@H](C(=O)N1CCC[C@H]1C(=O)N[C@@H](Cc1ccccc1)C(=O)N[C@@H](CCCCN)C(=O)O)[C@@H](C)O [compound 50] (H-ANGVAFFLTPFK-OH; N-terminus and C-terminus assumed) | 115 µM | 1.5 µM
